The text below walks through data of patent US8815918B2, “Imidazo [2, 1-B] [1, 3, 4] thiadiazole derivatives” (Centro Nacional de Investigaciones Oncologicas (CNIO), priority 2009, dated 2014).

The target of this experiment is PI3K (p110α/p85α) (Homo sapiens (Human), UniProt P42336). Kind of experiment: PI3K Activity Assay (ADP Hunter Plus). Type of experiment: biochemical. The note with it: for inhibition at 10 µM: 10 μM compound concentration, read-out: Inhibition (%) of PI3Kα activity, Inh (%) at 10 μM. As for the experimental part:
The kinase activity was measured by using the commercial ADP Hunter™ Plus assay available from DiscoveRx (#33-016), which is a homogeneous assay to measure the accumulation of ADP, a universal product of kinase activity. The enzyme, PI3K (p110α/p85α was purchased from Carna Biosciences (#07CBS-0402A). The assay was done following the manufacturer recommendations with slight modifications: Mainly the kinase buffer was replace by 50 mM HEPES, pH 7.5, 3 mM MgCl2, 100 mM NaCl, 1 mM EGTA, 0.04% CHAPS, 2 mM TCEP and 0.01 mg/ml BGG. The PI3K was assayed in a titration experiment to determine the optimal protein concentration for the inhibition assay. To calculate the IC50 of the ETP-compounds, serial 1:5 dilutions of the compounds were added to the enzyme at a fixed concentration (2.5 μg/mL. The enzyme was preincubated with the inhibitor and 30 μM PIP2 substrate (P9763, Sigma) for 5 min and then ATP was added to a final 50 μM concentration. Reaction was carried out for 1 hour at 25° C. Reagent A and B were sequentially added to the wells and plates were incubated for 30 min at 37° C. Fluorescence counts were read in a Victor instrument (Perkin Elmer) with the recommended settings (544 and 580 nm as excitation and emission wavelengths, respectively). Values were normalized against the control activity included for each enzyme (i.e., 100% PI3 kinase activity, without compound). These values were plot against the inhibitor concentration and were fit to a sigmoid dose-response curve by using the Graphad software.

Where [1] appears, read: read-out: Biological activity in PI3Kα, semi-quantitative.

Molecules are shown by their SMILES. Like-named read-outs stand apart in the source and are kept apart here.

Sequence of PI3K (p110α/p85α) (P42336 whole entry): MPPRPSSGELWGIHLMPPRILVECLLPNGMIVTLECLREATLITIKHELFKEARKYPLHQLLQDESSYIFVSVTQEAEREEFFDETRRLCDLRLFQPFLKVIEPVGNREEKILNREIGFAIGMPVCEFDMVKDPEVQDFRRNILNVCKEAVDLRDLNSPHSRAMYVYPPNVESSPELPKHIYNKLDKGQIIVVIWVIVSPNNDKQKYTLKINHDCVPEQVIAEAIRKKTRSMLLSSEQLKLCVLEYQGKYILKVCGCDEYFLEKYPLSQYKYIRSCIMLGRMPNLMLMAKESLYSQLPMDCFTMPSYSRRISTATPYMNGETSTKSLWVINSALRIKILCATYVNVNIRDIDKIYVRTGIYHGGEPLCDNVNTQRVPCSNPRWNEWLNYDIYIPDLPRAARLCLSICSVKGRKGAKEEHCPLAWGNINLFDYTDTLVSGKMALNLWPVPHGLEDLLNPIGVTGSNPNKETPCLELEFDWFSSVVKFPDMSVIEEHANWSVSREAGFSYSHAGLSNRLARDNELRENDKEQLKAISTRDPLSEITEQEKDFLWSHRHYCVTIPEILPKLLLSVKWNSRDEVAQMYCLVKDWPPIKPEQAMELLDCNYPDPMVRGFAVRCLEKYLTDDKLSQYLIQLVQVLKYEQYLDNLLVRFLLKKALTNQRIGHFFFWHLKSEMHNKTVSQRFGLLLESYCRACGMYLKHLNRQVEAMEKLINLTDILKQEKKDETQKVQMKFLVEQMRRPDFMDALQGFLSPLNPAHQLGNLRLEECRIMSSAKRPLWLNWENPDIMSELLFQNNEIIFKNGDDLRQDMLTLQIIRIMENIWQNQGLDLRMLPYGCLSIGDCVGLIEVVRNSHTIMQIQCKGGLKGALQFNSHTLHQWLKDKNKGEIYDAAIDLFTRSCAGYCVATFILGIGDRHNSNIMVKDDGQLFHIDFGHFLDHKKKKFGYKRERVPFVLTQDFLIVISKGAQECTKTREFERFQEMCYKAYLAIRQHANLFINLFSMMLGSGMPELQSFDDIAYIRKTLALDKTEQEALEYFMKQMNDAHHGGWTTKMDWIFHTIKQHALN
Sequence of PI3K (p110α/p85α) (P27986 whole entry partner): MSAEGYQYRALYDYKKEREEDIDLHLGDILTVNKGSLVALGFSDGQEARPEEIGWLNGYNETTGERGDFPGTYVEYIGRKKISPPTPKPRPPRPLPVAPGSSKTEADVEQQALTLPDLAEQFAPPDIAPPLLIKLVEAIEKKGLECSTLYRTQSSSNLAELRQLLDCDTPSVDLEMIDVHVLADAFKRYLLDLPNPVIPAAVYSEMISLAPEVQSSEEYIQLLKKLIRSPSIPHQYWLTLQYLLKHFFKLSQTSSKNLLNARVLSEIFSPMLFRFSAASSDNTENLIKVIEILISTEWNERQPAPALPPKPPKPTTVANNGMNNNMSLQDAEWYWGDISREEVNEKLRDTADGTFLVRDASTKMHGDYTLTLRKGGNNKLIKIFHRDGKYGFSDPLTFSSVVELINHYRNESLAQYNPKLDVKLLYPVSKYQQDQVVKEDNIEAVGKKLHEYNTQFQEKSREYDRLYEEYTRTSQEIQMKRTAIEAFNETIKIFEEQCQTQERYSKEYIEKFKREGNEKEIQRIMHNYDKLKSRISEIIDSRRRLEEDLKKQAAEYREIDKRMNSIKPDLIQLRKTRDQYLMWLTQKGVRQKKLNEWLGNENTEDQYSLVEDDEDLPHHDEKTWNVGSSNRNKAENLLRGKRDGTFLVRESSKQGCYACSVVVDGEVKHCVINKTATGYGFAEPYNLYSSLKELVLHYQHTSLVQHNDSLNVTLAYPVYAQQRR

For `COc1ccc(-c2nn3c(-c4ccc(OC)c(OC)c4)c(C)nc3s2)cc1OC` [Example 6, 2,5-Bis-(3,4-dimethoxy-phenyl)-6-methyl-imidazo[2,1-b][1,3,4]thiadiazole], the inhibition (usually how much of the control response was suppressed) at 10 µM came out at 85%. Further, the IC50 under setting [1] was 0.1 to 1 µM.

As to `COc1ccc(-c2nn3c(-c4ccc(C#N)nc4)cnc3s2)cc1OC` [Example 17, 5-[2-(3,4-Dimethoxy-phenyl)-imidazo[2,1-b][1,3,4]thiadiazol-5-yl]-pyridine-2-carbonitrile], the inhibition at 10 µM worked out at 95%. For the same compound, under setting [1], the IC50 was < 0.1 µM. The IC50 (read-out: IC50 [μM] PI3Kα) was found to be 0.063 µM.

In the case of `COc1cccc(-c2nn3c(-c4cnc(N)c(C(F)(F)F)c4)cnc3s2)c1` [Example 28, 5-[2-(3-Methoxy-phenyl)-imidazo[2,1-b][1,3,4]thiadiazol-5-yl]-3-trifluoromethyl-pyridin-2-ylamine], the IC50 under setting [1] lay in the range of 0.1 to 1 µM.

As to `COc1ccc(-c2nn3c(-c4cnc(N)c(C(F)(F)F)c4)cnc3s2)cc1` [Example 30, 5-[2-(4-Methoxy-phenyl)-imidazo[2,1-b][1,3,4]thiadiazol-5-yl]-3-trifluoromethyl-pyridin-2-ylamine], the IC50 under setting [1] was 0.1 to 1 µM and the IC50 (read-out: IC50 [μM] PI3Kα) is 0.454 µM.

`COc1ccc(-c2nn3c(-c4ccc(OC)c(OC)c4)cnc3s2)cc1OC` [Example 16, 2,5-Bis-(3,4-dimethoxy-phenyl)-imidazo[2,1-b][1,3,4]thiadiazole]: the inhibition at 10 µM is 97%. The IC50 under setting [1] is < 0.1 µM.

With `COc1ccc(-c2nn3c(-c4cnc(N5CCN(C)CC5)c(C(F)(F)F)c4)cnc3s2)cc1OC` [Example 23, 2-(3,4-Dimethoxy-phenyl)-5-[6-(4-methyl-piperazin-1-yl)-5-trifluoromethyl-pyridin-3-yl]-imidazo[2,1-b][1,3,4]thiadiazole], the IC50 is, setting by setting: under setting [1], 0.1 to 1 µM; (read-out: IC50 [μM] PI3Kα) 0.447 µM.

In the case of `COc1ccc(-c2nn3c(-c4cnc(N5CCNCC5)nc4)cnc3s2)cc1OC` [Example 20, 2-(3,4-Dimethoxy-phenyl)-5-(2-piperazin-1-yl-pyrimidin-5-yl)-imidazo[2,1-b][1,3,4]thiadiazole], the IC50 under setting [1] is 0.1 to 1 µM.

Take `CC(=O)Nc1cccc(-c2nn3c(-c4cnc(N)c(C(F)(F)F)c4)cnc3s2)c1` [Example 46, N-{3-[5-(6-Amino-5-trifluoromethyl-pyridin-3-yl)-imidazo[2,1-b][1,3,4]thiadiazol-2-yl]-phenyl}-acetamide]: the IC50 under setting [1] is < 0.1 µM.

On to `Cc1ccncc1-c1nn2c(-c3cnc(N)c(C(F)(F)F)c3)cnc2s1` [Example 37, 5-[2-(4-Methyl-pyridin-3-yl)-imidazo[2,1-b][1,3,4]thiadiazol-5-yl]-3-trifluoromethyl-pyridin-2-ylamine], for which the IC50 under setting [1] is < 0.1 µM.

As to `Nc1ncc(-c2cnc3sc(-c4ccc5[nH]ccc5c4)nn23)cc1C(F)(F)F` [Example 40, 5-[2-(1H-Indol-5-yl)-imidazo[2,1-b][1,3,4]thiadiazol-5-yl]-3-trifluoromethyl-pyridin-2-ylamine], the IC50 under setting [1] was 0.1 to 1 µM and the IC50 (read-out: IC50 [μM] PI3Kα) was determined as 0.676 µM.

Regarding `COc1ccc(-c2nn3c(-c4cnc(N)c(C#N)c4)cnc3s2)cc1OC` [Example 18, 2-Amino-5-[2-(3,4-dimethoxy-phenyl)-imidazo[2,1-b][1,3,4]thiadiazol-5-yl]-nicotinonitrile], the IC50 by setting is: under setting [1], < 0.1 µM; (read-out: IC50 [μM] PI3Kα) 0.033 µM.

Regarding `COc1cncc(-c2nn3c(-c4cnc(N)c(C(F)(F)F)c4)cnc3s2)c1` [Example 47, 5-[2-(5-Methoxy-pyridin-3-yl)-imidazo[2,1-b][1,3,4]thiadiazol-5-yl]-3-trifluoromethyl-pyridin-2-ylamine], the IC50 runs as follows: under setting [1], < 0.1 µM; (read-out: IC50 [μM] PI3Kα) 0.021 µM.

On to `COc1cc(-c2nn3c(-c4cnc(N)nc4)cnc3s2)ccc1OC1CCNCC1` [Example 15, 5-{2-[3-Methoxy-4-(piperidin-4-yloxy)-phenyl]-imidazo[2,1-b][1,3,4]thiadiazol-5-yl}-pyrimidin-2-ylamine], for which the IC50 by setting is: under setting [1], 0.1 to 1 µM; (read-out: IC50 [μM] PI3Kα) 0.115 µM.

Consider `COc1cc(-c2nn3c(-c4cnc(N)nc4)cnc3s2)ccc1OC1CCN(C(=O)OC(C)(C)C)CC1` [Example 14, 4-{4-[5-(2-Amino-pyrimidin-5-yl)-imidazo[2,1-b][1,3,4]thiadiazol-2-yl]-2-methoxy-phenoxy}-piperidine-1-carboxylic acid tert-butyl ester], for which the IC50 under setting [1] was 1 to 50 µM.

With `COc1ccc(-c2nn3c(-c4cnc(N5CCNCC5)c(C(F)(F)F)c4)cnc3s2)cc1OC` [Example 22, 2-(3,4-Dimethoxy-phenyl)-5-(6-piperazin-1-yl-5-trifluoromethyl-pyridin-3-yl)-imidazo[2,1-b][1,3,4]thiadiazole], the IC50 under setting [1] fell in the range of 0.1 to 1 µM.

For the compound `COc1ccc(-c2nn3c(-c4ccc(S(C)(=O)=O)c(F)c4)c(C)nc3s2)cc1OC` [Example 1, 2-(3,4-Dimethoxy-phenyl)-5-(3-fluoro-4-methanesulfonyl-phenyl) -6-methyl-imidazo[2,1-b][1,3,4]thiadiazole], the inhibition at 10 µM is 68%. The IC50 under setting [1] is 0.1 to 1 µM.

Turning to `CS(=O)(=O)c1cccc(-c2nn3c(-c4cnc(N)c(C(F)(F)F)c4)cnc3s2)c1` [Example 41, 5-[2-(3-Methanesulfonyl-phenyl)-imidazo[2,1-b][1,3,4]thiadiazol-5-yl]-3-trifluoromethyl-pyridin-2-ylamine], the IC50 under setting [1] is < 0.1 µM and the IC50 (read-out: IC50 [μM] PI3Kα) was found to be 0.05 µM.

`COc1ccc(-c2nn3c(-c4cnc(N5CCN(C(=O)OC(C)(C)C)CC5)nc4)cnc3s2)cc1OC` [Example 19, 4-{5-[2-(3,4-Dimethoxy-phenyl)-imidazo[2,1-b][1,3,4]thiadiazol-5-yl]-pyrimidin-2-yl}-piperazine-1-carboxylic acid tert-butyl ester]: under setting [1], the IC50 lay within 1 to 50 µM.

As to `Cc1ccc(-c2nn3c(-c4cnc(N)c(C(F)(F)F)c4)cnc3s2)cn1` [Example 43, 5-[2-(6-Methyl-pyridin-3-yl)-imidazo[2,1-b][1,3,4]thiadiazol-5-yl]-3-trifluoromethyl-pyridin-2-ylamine], the IC50 runs as follows: under setting [1], < 0.1 µM; (read-out: IC50 [μM] PI3Kα) 0.062 µM.

Turning to `COc1ccc(-c2nn3c(-c4cnc(SC)nc4)cnc3s2)cc1OC` [Example 24, 2-(3,4-Dimethoxy-phenyl)-5-(2-methylsulfanyl-pyrimidin-5-yl)-imidazo[2,1-b][1,3,4]thiadiazole], under setting [1], the IC50 lay within 0.1 to 1 µM.

In the case of `COc1ccc(-c2nn3c(-c4cnc([S+](C)[O-])nc4)cnc3s2)cc1OC` (stereo not drawn) [Example 25, 2-(3,4-Dimethoxy-phenyl)-5-(2-mthanesulfinyl-pyrimidin-5-yl) -imidazo[2,1-b][1,3,4]thiadiazole], the IC50 under setting [1] fell in the range of 0.1 to 1 µM.

As to `COC(=O)c1ccc(-c2cnc3sc(-c4cnc(N)c(C(F)(F)F)c4)nn23)cc1OC` [Example 51, 4-[2-(6-Amino-5-trifluoromethyl-pyridin-3-yl)-imidazo[2,1-b][1,3,4]thiadiazol-5-yl]-2-methoxy-benzoic acid methyl ester], the IC50 is, setting by setting: under setting [1], < 0.1 µM; (read-out: IC50 [μM] PI3Kα) 0.018 µM.
